Measurements as given in patent US8575089B2, “Composition for preventing or treating inflammation” (University-Industry Cooperation Group of Kyung Hee, priority 2009, dated 2013).
Where no end group is shown, it is not given here.

Test system: CD11b+ macrophage isolated from peripheral blood
Experiment: IL-6 and IL-10 expression (ELISA) in CD11b+ macrophages treated with SP
Type: cell-based, C57b1/6 mice
Details: CD11b+ macrophage in macrophage activation media; SP as Example 1-(1); 4.5, 10, 24 hours; FIG. 3
Experimental: [The procedure below names another cell line; the source says it served here with some conditions changed.] Peripheral blood was collected from C57b1/6 mice (8 weeks, sex; male, n=5, Average Weight; 20 g), diluted doubly with PBS, carefully placed on Ficoll in a tube, and then centrifuged at 2200 rpm for 20 minutes. By centrifuging, from the bottom, an erythrocyte layer, a ficoll layer, a mononuclear cell layer, and a plasma layer were obtained in order. The mononuclear cell layer and plasma layer were isolated, excluding the erythrocyte layer and ficoll layer, and then washed one time with PBS. Then, the number of cells was counted; the cells with a concentration of 1×10^5/0.2 ml were seeded onto T-cell activation media (lymphocyte activation media; RPMI, 10% FBS, 100 μM 2-mercaptoetanol, 20 μg/ml ConA); then the cells were cultured at an incubator of 37° C.; and then culture supernatant was taken at 4.5 hours, 10 hours, and 24 hours. For SP-treated group, 10 nmole/kg of SP dissolved in a physiological saline was treated to T-cell activation media. […] After 30 minutes, 100 μl of stop codon was treated to stop the reaction; the optical density was measured at 450 nm; the amounts of cytokines were converted based on a protein conversion formula by a standard sample; and then the results were shown in FIG. 1. […]

Substance: Substance-P (RPKPQQFFGLM; not fully specified; ends and bridges not checked; UniProt P20366 58-68, looked up)
- expression level of IL-6 in culture supernatant: no difference
- expression of IL-10 in culture supernatant: increased
